According to patent publication US4983603A, “Tricyclic cholinergic receptor agonists” (Societe Anonyme: SANOFI, priority 1987, dated 1991):

Target: T1, M1-type muscarinic cholinergic receptor (Rattus norvegicus, UniProt P08482)
T1 sequence (P08482 1-460): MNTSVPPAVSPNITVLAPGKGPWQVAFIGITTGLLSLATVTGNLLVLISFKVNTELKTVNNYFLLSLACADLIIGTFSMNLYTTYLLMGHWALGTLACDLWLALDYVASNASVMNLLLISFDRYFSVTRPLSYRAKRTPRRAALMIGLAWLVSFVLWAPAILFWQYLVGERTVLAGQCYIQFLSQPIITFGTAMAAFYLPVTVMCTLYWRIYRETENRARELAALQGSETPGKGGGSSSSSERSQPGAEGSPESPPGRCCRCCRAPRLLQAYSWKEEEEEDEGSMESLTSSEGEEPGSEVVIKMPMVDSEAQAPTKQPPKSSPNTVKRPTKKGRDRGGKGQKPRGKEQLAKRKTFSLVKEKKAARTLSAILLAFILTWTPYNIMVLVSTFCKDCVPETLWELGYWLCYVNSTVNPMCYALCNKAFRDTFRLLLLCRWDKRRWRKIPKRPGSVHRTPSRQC
Test: Test for affinity for the M1-type muscarinic cholinergic receptor (displacement of [3H]pirenzepine)
Format: binding
Settings: M2 IC50 (guinea-pig ileum) / M1 IC50 (rat hippocampus)
Description: (A) Test for Affinity for the M1 -Type Muscarinic Cholinergic Receptor
The interaction of the molecules with M1 -type muscarinic receptors was studied by in vitro measurement, on a homogenate of rat hippocampus, of the displacement of tritiated pirenzepine ([^3 H]PZ) from its specific binding sites. Aliquots (10 μl) of a 5% (w/v) homogenate of rat hippocampus in an Na2 HPO4 buffer (50 mM, pH 7.40) are incubated for 2 h at 4° C. in the presence of [^3 H]PZ (76 Ci/nmol; final concentration: 1 nM) and increasing concentrations of products to be studied. The final volume is 2 ml. The reaction is stopped by centrifugation for 10 min at 50,000×g. After decantation and washing of the residues, the bound radioactivity is counted by liquid scintillation. The non-specific binding is determined in the presence of 10 μmol/l of atropine sulfate. The 50% inhibitory concentration (IC50) is determined graphically (Ref.: Watson J. D., Roeskoe W. R. and Yamamura H. I., Life Sci., 31, 2019-2029, 1982).

Structure (SMILES)	r = (M2/M1), ratio of the IC50 values (selectivity)
Cl.Cl.c1ccc2c(c1)oc1cc(NCCN3CCOCC3)nnc12 [SR 44288 A, 2-(2-Morpholinoethylamino)-9-oxa-3,4-diazafluorene dihydrochloride]	> 33
Cl.Cl.c1ccc2c(c1)sc1cc(NCCN3CCOCC3)nnc12 [SR 44289 A, 2-(2-Morpholinoethylamino)-9-thia-3,4-diazafluorene dihydrochloride]	28
CCN(CC)CCNc1cc2oc3ccccc3c2nn1 [SR 45040 A]	64
CCN(CC)CCCNc1cc2oc3ccccc3c2nn1 [SR 45041 A]	100
CCN1CCCC1CNc1cc2oc3ccccc3c2nn1 (centres unmarked) [SR 45042 A]	500
CCN(CC)CCNc1cc2c(nn1)-c1ccccc1SC2.Cl.Cl [SR 96056 A, 2-(2-Diethylaminoethylamino)-9,10-dihydro-9-thia-3,4-diazaphenanthrene dihydrochloride]	24
Cl.Cl.c1ccc2c(c1)OCc1cc(NCCN3CCOCC3)nnc1-2 [SR 96094 A, 2-(2-Morpholinoethylamino)-9,10-dihydro-9-oxa-3,4-diazaphenanthrene dihydrochloride]	> 27

Same assay, conditions: homogenate of rat hippocampus, [3H]PZ 1 nM, 2 h at 4° C., pH 7.40

Structure (SMILES)	IC50
Cl.Cl.c1ccc2c(c1)oc1cc(NCCN3CCOCC3)nnc12 [SR 44288 A, 2-(2-Morpholinoethylamino)-9-oxa-3,4-diazafluorene dihydrochloride]	3 µM
Cl.Cl.c1ccc2c(c1)sc1cc(NCCN3CCOCC3)nnc12 [SR 44289 A, 2-(2-Morpholinoethylamino)-9-thia-3,4-diazafluorene dihydrochloride]	3.5 µM
CCN(CC)CCNc1cc2oc3ccccc3c2nn1 [SR 45040 A]	0.7 µM
CCN(CC)CCCNc1cc2oc3ccccc3c2nn1 [SR 45041 A]	0.1 µM
CCN1CCCC1CNc1cc2oc3ccccc3c2nn1 (centres unmarked) [SR 45042 A]	0.1 µM
CCN(CC)CCNc1cc2c(nn1)-c1ccccc1SC2.Cl.Cl [SR 96056 A, 2-(2-Diethylaminoethylamino)-9,10-dihydro-9-thia-3,4-diazaphenanthrene dihydrochloride]	0.15 µM
Cl.Cl.c1ccc2c(c1)OCc1cc(NCCN3CCOCC3)nnc1-2 [SR 96094 A, 2-(2-Morpholinoethylamino)-9,10-dihydro-9-oxa-3,4-diazaphenanthrene dihydrochloride]	3.6 µM

Target: T2, M2-type muscarinic cholinergic receptor (Cavia porcellus, UniProt H0VRN8)
T2 construct: on a homogenate of smooth muscle of guinea-pig ileum; from tissue; host or cells: guinea-pig ileum smooth muscle homogenate
T2 sequence (H0VRN8 1-466): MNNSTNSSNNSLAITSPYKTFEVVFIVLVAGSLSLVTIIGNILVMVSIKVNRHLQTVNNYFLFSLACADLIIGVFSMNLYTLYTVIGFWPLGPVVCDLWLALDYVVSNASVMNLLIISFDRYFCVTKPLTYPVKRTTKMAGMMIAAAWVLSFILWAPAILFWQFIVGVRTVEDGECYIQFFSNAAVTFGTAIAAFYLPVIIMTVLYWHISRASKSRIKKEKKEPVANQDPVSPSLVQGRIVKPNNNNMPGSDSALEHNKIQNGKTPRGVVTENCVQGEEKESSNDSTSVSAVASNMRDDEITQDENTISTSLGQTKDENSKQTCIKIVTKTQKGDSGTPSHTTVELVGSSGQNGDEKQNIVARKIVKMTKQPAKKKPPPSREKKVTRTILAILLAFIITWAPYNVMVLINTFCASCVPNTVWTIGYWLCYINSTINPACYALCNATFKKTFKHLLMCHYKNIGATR
Test: Test for affinity for the M2-type muscarinic cholinergic receptor (displacement of [3H]N-methylscopolamine)
Format: binding
Settings: homogenate of smooth muscle of guinea-pig ileum, [3H]NMS 0.3 nM, 20 min at 30° C., pH 7.5
Description: The M1 -type receptors are concentrated in certain areas of the brain, such as the hippocampus, the cerebral cortex and the striatum, and also in the sympathetic ganglia. These binding sites can be selectivity labeled with [^3 H] pirenzepine ([^3 H]PZ). The M2 -type receptors predominate in the heart and ileum and can be labeled with [^3 H] N-methylscopolamine ([^3 H]NMS). To determine the selectivity of the products of the invention towards the M1 and M2 sites, we studied their interaction in vitro with [^3 H]PZ and [^3 H]NMS bound with a high affinity to membranes of rat hippocampus and membranes of smooth muscle of guinea-pig ileum, respectively.
(B) Test for Affinity for the M2 -Type Muscarinic Cholinergic Receptor
The interaction with M2 -type muscarinic receptors was studied by in vitro measurement, on a homogenate of smooth muscle of guinea-pig ileum, of the displacement of tritiated N-methylscopolamine ([^3 H]NMS) from its specific binding sites. Aliquots (50 μl) of a 0.625% (w/v) homogenate of smooth muscle of guinea-pig ileum in MEPES buffer (20 mM) containing NaCl (100 mM) and MgCl2 (10 mM) (final pH: 7.5) are incubated for 20 min at 30° C. in the presence of [^3 H]NMS ([…]; final concentration: 0.3 nM) and increasing concentrations of products to be tested. The final volume is 1 ml. The reaction is stopped by centrifugation for 5 min at 15,000×g. The non-specific binding is determined in the presence of 10 μmol/l of atropine sulfate. (Ref.: Hammer R., Berrie C. P., Birdsall N. I. M., Burgen A. S. V. and Hulme E. C., Nature, 283, 90-92, 1980; Hulme E. C., Birdsall N. I. M., Burgen A. S. V. and Mettha P., Mol. Pharmacol., 14, 737-750, 1978).
Table 2 indicates the affinities of the products of the invention for M1 and M2 receptors. The results are expressed as 50% inhibitory concentrations (IC50), i.e. the concentration (in μM) which causes a 50% displacement of the tritiated ligand bound to the membrane receptors. The IC50 for displacement of ^3 H-pirenzepine represents the affinity for the M1 receptor; the IC50 for displacement of ^3 H-NMS represents the affinity for the M2 receptor.

Structure (SMILES)	IC50
Cl.Cl.c1ccc2c(c1)oc1cc(NCCN3CCOCC3)nnc12 [SR 44288 A, 2-(2-Morpholinoethylamino)-9-oxa-3,4-diazafluorene dihydrochloride]	> 100 µM
Cl.Cl.c1ccc2c(c1)sc1cc(NCCN3CCOCC3)nnc12 [SR 44289 A, 2-(2-Morpholinoethylamino)-9-thia-3,4-diazafluorene dihydrochloride]	100 µM
CCN(CC)CCNc1cc2oc3ccccc3c2nn1 [SR 45040 A]	45 µM
CCN(CC)CCCNc1cc2oc3ccccc3c2nn1 [SR 45041 A]	10 µM
CCN1CCCC1CNc1cc2oc3ccccc3c2nn1 (centres unmarked) [SR 45042 A]	50 µM
CCN(CC)CCNc1cc2c(nn1)-c1ccccc1SC2.Cl.Cl [SR 96056 A, 2-(2-Diethylaminoethylamino)-9,10-dihydro-9-thia-3,4-diazaphenanthrene dihydrochloride]	3.6 µM
Cl.Cl.c1ccc2c(c1)OCc1cc(NCCN3CCOCC3)nnc1-2 [SR 96094 A, 2-(2-Morpholinoethylamino)-9,10-dihydro-9-oxa-3,4-diazaphenanthrene dihydrochloride]	> 100 µM

System: M1 central muscarinic cholinergic receptors
Test: Antagonism of rotational behavior induced by intrastriatal injection of pirenzepine in mice
Format: in vivo, mice (Swiss, CD 1, female)
Settings: 3 mg/kg, i.p., 15 minutes before pirenzepine; * p<0.05, ** p<0.01 vs control animals
Description: Pirenzepine (PZ) is a specific antagonist of M1 central muscarinic cholinergic receptors. The intrastriatal injection of PZ into mice induces rotational behavior. The antagonism of this behavior by the products according to the invention was studied. The products according to the invention are injected intraperitoneally (i.p.) after solubilization in distilled water or suspension in a 5% solution of gum arabic. The control animals receive an injection of the pure solvent under the same conditions. The animals used are female mice (Swiss, CD 1, Charles River, France) with a body weight of between 25 and 30 grams. Pirenzepine is dissolved in a phosphate buffer; the pH of the solution is 6. The products to be studied or their solvents are injected intraperitoneally, in a volume of 0.4 ml per 20 g of body weight, 15 minutes before a direct injection of pirenzepine at a dose of […] into the right striatum of the mouse, according to the method described by P. WORMS et al. in Eur. J. Pharmacol., 1986, 121, 395-401. The number of contralateral rotations (rotations in the opposite direction to the side injected) was counted for three 2-minute periods after the injection of pirenzepine: minutes 2 to 4, 8 to 10 and 13 to 15. Each treatment includes 1 to 3 doses and 10 animals per dose. For each treatment, the total number of rotations and the percentage antagonism compared with the control group are calculated.

Structure (SMILES)	Pirenzepine antagonism (percentage antagonism compared with control group, rotations)
Cl.Cl.c1ccc2c(c1)oc1cc(NCCN3CCOCC3)nnc12 [SR 44288 A, 2-(2-Morpholinoethylamino)-9-oxa-3,4-diazafluorene dihydrochloride]	-32%
Cl.Cl.c1ccc2c(c1)sc1cc(NCCN3CCOCC3)nnc12 [SR 44289 A, 2-(2-Morpholinoethylamino)-9-thia-3,4-diazafluorene dihydrochloride]	-42%
CCN(CC)CCNc1cc2oc3ccccc3c2nn1 [SR 45040 A]	-47%
CCN(CC)CCCNc1cc2oc3ccccc3c2nn1 [SR 45041 A]	-72%
CCN1CCCC1CNc1cc2oc3ccccc3c2nn1 (centres unmarked) [SR 45042 A]	-52%
CCN(CC)CCNc1cc2c(nn1)-c1ccccc1SC2.Cl.Cl [SR 96056 A, 2-(2-Diethylaminoethylamino)-9,10-dihydro-9-thia-3,4-diazaphenanthrene dihydrochloride]	-14%
Cl.Cl.c1ccc2c(c1)OCc1cc(NCCN3CCOCC3)nnc1-2 [SR 96094 A, 2-(2-Morpholinoethylamino)-9,10-dihydro-9-oxa-3,4-diazaphenanthrene dihydrochloride]	-8%

Same assay, conditions: 10 mg/kg, i.p., 15 minutes before pirenzepine; * p<0.05, ** p<0.01 vs control animals

Structure (SMILES)	Pirenzepine antagonism (percentage antagonism compared with control group, rotations)
Cl.Cl.c1ccc2c(c1)oc1cc(NCCN3CCOCC3)nnc12 [SR 44288 A, 2-(2-Morpholinoethylamino)-9-oxa-3,4-diazafluorene dihydrochloride]	-52%
Cl.Cl.c1ccc2c(c1)sc1cc(NCCN3CCOCC3)nnc12 [SR 44289 A, 2-(2-Morpholinoethylamino)-9-thia-3,4-diazafluorene dihydrochloride]	-85%
CCN(CC)CCNc1cc2c(nn1)-c1ccccc1SC2.Cl.Cl [SR 96056 A, 2-(2-Diethylaminoethylamino)-9,10-dihydro-9-thia-3,4-diazaphenanthrene dihydrochloride]	-55%
Cl.Cl.c1ccc2c(c1)OCc1cc(NCCN3CCOCC3)nnc1-2 [SR 96094 A, 2-(2-Morpholinoethylamino)-9,10-dihydro-9-oxa-3,4-diazaphenanthrene dihydrochloride]	-20%

Same assay, conditions: 30 mg/kg, i.p., 15 minutes before pirenzepine; * p<0.05, ** p<0.01 vs control animals

Structure (SMILES)	Pirenzepine antagonism (percentage antagonism compared with control group, rotations)
Cl.Cl.c1ccc2c(c1)oc1cc(NCCN3CCOCC3)nnc12 [SR 44288 A, 2-(2-Morpholinoethylamino)-9-oxa-3,4-diazafluorene dihydrochloride]	-100%
CCN(CC)CCNc1cc2c(nn1)-c1ccccc1SC2.Cl.Cl [SR 96056 A, 2-(2-Diethylaminoethylamino)-9,10-dihydro-9-thia-3,4-diazaphenanthrene dihydrochloride]	-79%
Cl.Cl.c1ccc2c(c1)OCc1cc(NCCN3CCOCC3)nnc1-2 [SR 96094 A, 2-(2-Morpholinoethylamino)-9,10-dihydro-9-oxa-3,4-diazaphenanthrene dihydrochloride]	-85%
